Assay results taken from ChEMBL document CHEMBL1136865, “Effects of detergents on the West Nile virus protease activity” (Bioorg Med Chem, 2009).
Calls of active or inactive are those of the source. The rule behind the calls is not given here.

Experiments:
West Nile virus [1] = test: Increase in West Nile virus NS3 protease activity at =>0.01 to 0.1 % by spectrofluorimetry using Boc-Gly-Lys-Arg-AMC substrate relative to control
West Nile virus [2] = test: Increase in West Nile virus NS3 protease activity up to 0.5% by spectrofluorimetry using Boc-Gly-Lys-Arg-AMC substrate relative to control

Activity (West Nile virus [1]): inactive | Activity (West Nile virus [2]): inactive
Compound: C[C@H](CCC(=O)NCCC[N+](C)(C)CCCS(=O)(=O)[O-])[C@H]1CC[C@H]2[C@@H]3[C@H](O)C[C@@H]4C[C@H](O)CC[C@]4(C)[C@H]3C[C@H](O)[C@]12C
